The source of these data is patent US8026228B2, “Estrogenic compounds in combination with progestogenic compounds in hormone-replacement therapy” (Pantarhei Bioscience B.V., priority 2001, dated 2011).

Data set [1] concerns the target T1, human sex Hormone Binding Globulin (SHBG) (Homo sapiens, UniProt P04278).
T1 construct: Human SHBG was purified from transgenic mouse serum; made in house; host or cells: transgenic mouse (serum)
T1 sequence (P04278 30-402): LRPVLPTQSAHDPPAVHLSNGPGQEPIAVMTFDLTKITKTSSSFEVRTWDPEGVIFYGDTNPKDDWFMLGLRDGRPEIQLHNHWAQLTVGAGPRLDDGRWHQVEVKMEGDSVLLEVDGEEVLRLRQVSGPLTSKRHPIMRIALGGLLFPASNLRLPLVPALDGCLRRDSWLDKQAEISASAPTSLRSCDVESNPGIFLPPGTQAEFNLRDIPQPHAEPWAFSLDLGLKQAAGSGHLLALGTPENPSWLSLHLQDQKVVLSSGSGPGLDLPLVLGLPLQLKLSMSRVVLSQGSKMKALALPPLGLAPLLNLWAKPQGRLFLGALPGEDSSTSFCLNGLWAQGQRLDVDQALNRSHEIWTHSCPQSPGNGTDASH
In words: Competitive steroid-binding assay. The note with it: [^3H]DHT or [^3H]estradiol as labeled ligands; order ethinylestradiol, 17β-estradiol, testosterone, 5α-dihydrotestosterone. The protocol: Human SHBG was treated for 30 min at room temperature with a dextran-coated charcoal (DCC) suspension in phosphate buffered saline (PBS) to remove any steroid ligand. After centrifugation (2,000×g for 10 min) to sediment the DCC, the supernatant containing the human SHBG was diluted in PBS to a concentration of 1 nM based on its steroid binding capacity.
The average amounts of [^3H]labeled ligands bound to SHBG at each concentration of competitor (B) were expressed as a percentage of the average amounts of [^3H]labeled ligands bound to SHBG in the absence of competitor (B0), and were plotted against the concentration of competitor in each assay tube.

A further data set has as its system ovariectomized rats. In words: Vaginal cornification bioassay, oral administration. It is filed as in vivo, rat. Particulars: relatively low doses 0.1 and 0.3 mg/kg/day, compared with EE. An excerpt: Uterine weight increase in the rat is more commonly used as a measure of estrogenicity. […] In the early 1920s it was discovered that follicular fluid from the pig ovary contained a factor(s) that caused cornification/keratinization of the vaginal epithelium in the rat (Allen and Doisy, 1923, JAMA, 81, 819-821; Allen and Doisy, 1924, Am. J. Physiol., 69, 577-588). The so-called vaginal cornification response in rats subsequently provided a bioassay for testing estrogenicity. Vaginal epithelial cornification/keratinization in ovariectomized rats can be produced only by compounds considered to be true estrogens (Jones et al, 1973, Fert. Steril. 24, 284-291). […] Adult intact female CD rats were ovariectomized to induce estrogen deficiency. […] Castrate vaginal smears are indicative that complete ovariectomy was achieved. Treatment commenced following completion of the 7 days of smearing (day 0=first day of dosing). Animals were dosed, once daily for 7 consecutive days. Daily vaginal lavages continued to be obtained for 7 days after dosing was initiated in order to detect vaginal cornification, as an indication of an estrogenic response. […] Data are expressed as the number of rats showing vaginal cornification over the number of rats (ratio) treated.

In data set [2] the test system is Sham- and OVX-rats. Briefly: Osteoporosis model: ex vivo pQCT densitometry of proximal tibiae. It is filed as in vivo, rat. The note with it: po 0.1-[…], 4 weeks. The protocol:
(§1) The ovariectomized aged rat was used as a model for the human disease osteoporosis. This is an established animal model, recommended by the United States Food and Drug Administration (FDA), to evaluate and assess potential agents for osteoporosis prevention and therapy. The anti-resorptive efficacy of estetrol (E4) was tested by ex vivo measuring total and trabecular bone mineral density and bone strength after 4 weeks of treatment at necropsy. 17α-ethinyl-estradiol (EE) and vehicle (1% ethanol/arachidis oil) served as controls in this bioassay.
Three months old female Sprague-Dawley rats were either sham-operated (Sham) or ovariectomized (OVX) one day prior to commencement of the dosing study. Animals were anesthetized using a ketamine/xylazine anesthetic mixture and underwent a bilateral ovariectomy or were sham-treated. […]
Ex vivo peripheral Quantitative Computed Tomography (pQCT) was performed on the excised left tibiae using a Stratec XCT-RM and associated software (Stratec Medizintechnik GmbH, Pforzheim, Germany, software version 5.40). […] The scans were analyzed using a threshold for delineation of the external boundary. The total and trabecular bone mineral content, area and density at each site were determined. […]
(§2) Data are expressed as the mean values obtained for each group (n=10).

For data set [3], the system named is Sham- and OVX-rats. Briefly: Osteoporosis model: indentation test of distal femur (bone strength). It is filed as in vivo, rat. Particulars: oral treatment, dose-dependent. The protocol: as §1
Three months old female Sprague-Dawley rats were either sham-operated (Sham) or ovariectomized (OVX) one day prior to commencement of the dosing study. Animals were anesthetized using a ketamine/xylazine anesthetic mixture and underwent a bilateral ovariectomy or were sham-treated. A section of hair on the dorsal surface was shaved and an incision made overlying the lumbar region of the spine. The skin was separated from the underlying fascia so that a second incision could be made through the abdominal musculature approximately caudal to the kidneys. […]
as §2
The maximum load, stiffness and energy absorbed were determined from load displacement curves. Ultimate strength was calculated by dividing the maximum load by the indenter area. […]

The test system of data set [4] is morphine-dependent ovariectomized (OVX) rat. Briefly: Hot flush model: naloxone-induced tail skin temperature rise. In kind it is in vivo. The protocol: The morphine-dependent ovariectomized (OVX) rat was used as a model for postmenopausal hot flush. The potency of estetrol (E4) to prevent tail skin temperature rises, normally accompanied by a drop in core body temperature, after naloxone-induced opiate withdrawal was tested. 17α-ethinyl-estradiol (EE) and vehicle (hydroxy propyl-beta-cyclodextrin 20% wt/vol) served as controls in this bioassay.
The morphine-dependent ovariectomized (OVX) rat model has been proposed by several investigators (Katovich et al, 1986, Maturitas, 67-76; Merchenthaler et al. 1998, Maturitas, 307-316) as an animal model for the hot flush. During opiate withdrawal with the morphine antagonist naloxone, tail skin temperature (TST) rises and this rise is accompanied by a drop in core body temperature. In addition, the temperature changes are accompanied by surges in LH and a transient tachycardia. These events are similar in magnitude and temporal nature to those observed in the menopausal hot flush.
Three days prior to the commencement of dosing, animals were anesthetized using a ketamine/xylazine anesthetic mixture and underwent a bilateral ovariectomy. A section of hair on the dorsal surface was shaved and an incision made overlying the lumbar region of the spine. The skin was separated from the underlying fascia so that a second incision could be made through the abdominal musculature approximately caudal to the kidneys. The ovaries were then exteriorized and removed and the musculature was closed with a single suture. The skin incision was closed using surgical staples. Six rats per treatment group were dosed once per day for eight consecutive days prior to and including the day of naloxone-induced opiate withdrawal (the hot flush session). The dosing commenced three days after surgical removal of the ovaries and was administered by oral gavage using a syringe and stainless steel gavage needle. […]
For the hot flush manipulations the animals were placed in a test cage. […] The tail-skin temperature was recorded until it was stable and the animals were then injected with naloxone HCl (1 mg/kg). […]

For data set [5] the following is noted: intravenous, two adult women, Fishman et al. 1970; cited from earlier work.
Data set [6] relates to human breast cancer cells (MCF-7). Particulars: in vitro cell proliferation, Jozan et al. 1981; cited from earlier work.
A further data set deals with immature rat uterus. The note with it: continuous administration from a subcutaneous depot, Martucci et al. 1977; cited from earlier work.
In data set [7] the test system is estrogen receptors in the human endometrium. Particulars: Tseng et al. 1978; cited from earlier work.
The target in data set [8] is T2, rat uterine cytosol estrogen receptor (Rattus norvegicus, UniProt P06211).
T2 construct: rat uterine cytosol estrogen receptor; host or cells: rat uterus (cytosol; nuclear fraction)
T2 sequence (P06211 1-600): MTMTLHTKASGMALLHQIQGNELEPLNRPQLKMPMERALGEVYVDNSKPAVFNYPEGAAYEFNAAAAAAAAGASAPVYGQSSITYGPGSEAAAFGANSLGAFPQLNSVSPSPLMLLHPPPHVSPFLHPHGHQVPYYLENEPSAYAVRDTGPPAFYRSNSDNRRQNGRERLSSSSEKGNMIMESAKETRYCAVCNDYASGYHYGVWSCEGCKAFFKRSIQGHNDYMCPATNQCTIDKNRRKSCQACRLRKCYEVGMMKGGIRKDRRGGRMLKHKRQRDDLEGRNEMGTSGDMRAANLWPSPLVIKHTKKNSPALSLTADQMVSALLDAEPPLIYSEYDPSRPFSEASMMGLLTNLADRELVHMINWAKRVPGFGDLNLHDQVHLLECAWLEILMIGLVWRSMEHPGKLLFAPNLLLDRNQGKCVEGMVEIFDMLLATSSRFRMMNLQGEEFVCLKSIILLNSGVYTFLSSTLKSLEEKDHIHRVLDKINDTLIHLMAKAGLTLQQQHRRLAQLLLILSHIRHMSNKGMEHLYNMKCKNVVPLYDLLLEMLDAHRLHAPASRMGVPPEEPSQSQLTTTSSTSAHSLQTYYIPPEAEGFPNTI
The note with it: Martucci et al. 1976; cited from earlier work.

For data set [9], the target named is T3, rat uterine nuclear estrogen receptor (Rattus norvegicus, UniProt P06211).
T3 construct: rat uterine cytosol estrogen receptor; host or cells: rat uterus (cytosol; nuclear fraction)
T3 sequence (P06211 1-600): T2 sequence (P06211 1-600)
The note with it: Martucci et al. 1976; cited from earlier work.

In the case of `C[C@]12CCC(=O)C[C@@H]1CC[C@@H]1[C@@H]2CC[C@]2(C)[C@@H](O)CC[C@@H]12` [5α-dihydrotestosterone], in [1], the “relative binding affinity for human SHBG” value is reported as “in this order, show an increased relative binding affinity”.
With `C[C@]12CC[C@@H]3c4ccc(O)cc4CC[C@H]3[C@@H]1[C@@H](O)[C@@H](O)[C@@H]2O` [E4, 1,3,5(10)-estratrien-3,15α,16α,17β-tetrol], the “onset of vaginal cornification (animals responding at days 1-3)” value in the data set with ovariectomized rats is recorded as “as fast as in EE-treated animals”. For the same compound, in the data set on Sham- and OVX-rats [2], the “total and trabecular bone mineral content and bone mineral density, dose dependence” value is “consistent dose-dependent increase”. Also, the “declines in maximum load, stiffness, energy and ultimate strength” value in the data set on Sham- and OVX-rats [3] is reported as “prevented the declines”. The “effect on naloxone-induced TST, dose dependence” value in data set [4] (oral treatment, all doses) is reported as “clear dose-dependent effect”. Also, in [4] (po 3.0 mg/kg/day (highest dose)), the “effect on naloxone-induced TST compared with EE” value is given as “suppressive response similar to the potent oral estrogen, 17α-ethinyl estradiol (EE)”. For the same compound, the “effect on naloxone-induced TST” value in data set [4] (po 0.3, 1.0 and 3.0 mg/kg/day (three highest doses)) is reported as “attenuated the TST”. In data set [1], the “relative binding affinity for human SHBG” value was “negligible”. For the same compound, in [5], the excretion entry is “rapidly and completely excreted in urine as the glucosiduronate”; the metabolism entry is reported as “virtually no metabolism except for conjugation took place”. For the same compound, in data set [6], the “agonistic potency, of the magnitude observed for 17β-estradiol” value is recorded as 2%. Besides, in the data set on immature rat uterus, the uterotrophic activity entry is on record as “very weak uterotrophic activity”. The “relative binding, of 17β-estradiol” value in [7] was 1.5%. In data set [8], the “relative binding affinity, of 17β-estradiol (100%)” value is 0.5%. In addition, in [9], the “relative binding affinity, of 17β-estradiol (100%)” value is given as 0.3%.
For `C[C@]12CC[C@H]3[C@@H](CCC4=CC(=O)CC[C@@]43C)[C@@H]1CC[C@@H]2O` [testosterone], the “relative binding affinity for human SHBG” value in data set [1] is on record as “in this order, show an increased relative binding affinity”.
